For the series, the target named is T1, Cytochrome P450 1A2 (Homo sapiens, UniProt P05177).
T1 sequence (P05177 whole entry): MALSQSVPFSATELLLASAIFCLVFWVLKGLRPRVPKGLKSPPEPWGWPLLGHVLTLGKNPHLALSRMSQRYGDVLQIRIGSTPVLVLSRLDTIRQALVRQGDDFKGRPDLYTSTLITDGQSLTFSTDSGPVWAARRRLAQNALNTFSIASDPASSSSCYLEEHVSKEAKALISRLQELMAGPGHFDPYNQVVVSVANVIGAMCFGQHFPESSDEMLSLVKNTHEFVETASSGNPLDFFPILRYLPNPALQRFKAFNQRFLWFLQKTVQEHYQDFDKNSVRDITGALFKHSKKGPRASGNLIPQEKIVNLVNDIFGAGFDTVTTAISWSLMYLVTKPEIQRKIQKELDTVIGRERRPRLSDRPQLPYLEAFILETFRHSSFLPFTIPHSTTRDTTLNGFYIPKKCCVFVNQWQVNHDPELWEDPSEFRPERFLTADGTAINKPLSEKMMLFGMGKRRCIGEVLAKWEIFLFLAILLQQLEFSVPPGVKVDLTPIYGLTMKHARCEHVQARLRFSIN
As to the kind of experiment: CYP1A2 Inhibition Assay: CYP1A2 Inhibition in Human Liver Microsomes. Pooled human liver microsomes were incubated with individual CYP, CYP1A2, isozyme-specific marker substrate (Phenacetin) in the presence of test compound at various concentrations (0.05, 0.15, 0.5, 1.5, 5, 15, 50 uM). The specific marker metabolites are measured with LC/MS/MS. The remaining enzymatic activities and inhibitory potency IC50 are determined. Procedure: Microsomes are removed out of the −80° C. freezer to thaw on ice and 20 μL of the substrates solution added to the corresponding wells. Then 20 μL PB was added to blank wells and 2 μL of the test compounds and positive control working solution added to the corresponding wells. 2 μL of solvent was added to No Inhibitor wells and Blank wells. Then 158 μL of the HLM working solution was added to all wells of the incubation plate. The plate was pre-warmed for about 10 min using a 37° C. water bath. Then 20 μL of the NADPH cofactor solution was added to all incubation wells, mixed and incubated for 10 minutes at 37° C. water bath. The reaction is terminated by adding 400 μL cold stop solution (200 ng/mL Tolbutamide and 200 ng/mL Labetalol in ACN). The samples were centrifuged at 4000 rpm for 20 minutes to precipitate protein. Finally 200 μL of the supernatant was transferred to 100 μL HPLC water, shaken for 10 min and analyzed by LC/MS/MS.

Some results are limits rather than exact numbers.

This note sets out measurements from ChEMBL document CHEMBL5729666, “Substituted [1,2,4]triazolo[4,3-a]pyrazines as modulators of sodium channel activity” (2023).

For the compound `O=C(NNc1cnc(-c2ccc(OC(F)(F)F)cc2)cn1)C1(F)CC1`, the IC50 entry was “in the range around 8 µM”. Consider `FC(F)(F)Oc1ccc(-c2ccc3nnc(C(F)(F)Cl)n3n2)cc1`, for which the IC50 is under 1 µM.
